Measured values taken from patent US20240425464A1, “Substituted Monohydrazides as Potent Antifungal Agents” (University of Kentucky Research Foundation, priority 2023, published 2024).
Converted amounts (≈) assume the structure as drawn. Like-named read-outs stand apart in the source and are kept apart here.

Columns and labels:
Type in all cases: cell-based, Candida auris
[1] = tested on: panel of ten C. auris strains (AR Bank #381-390); experiment: MIC determination, summary over the C. auris panel; settings: Candidozyma auris; against all ten C. auris strains tested (AR Bank #381-390)
Protocol: (§1) The antifungal agent amphotericin B (AmB) was purchased from VWR (Radnor PA, USA). AmB was dissolved in DMSO at a final concentration of 5 mg/mL and was stored at −20° C., protected from light. Candida albicans American Type Culture Collection (ATCC) 10231 (strain A), C. albicans ATCC 64124 (B), and C. albicans ATCC MYA-2876 (C) were obtained from Utah State University. C. albicans ATCC 90819 (D), C. albicans ATCC MYA-2310 (E), C. albicans ATCC MYA-1237 (F), C. albicans ATCC MYA-1003 (G), Candida glabrata ATCC 2001 (H), Candida krusei ATCC 6258 (I), Candida parapsilosis ATCC 22019 (J), Cryptococcus neoformans ATCC MYA-895 (M), Aspergillus terreus ATCC MYA-3633 (N), and Aspergillus flavus ATCC MYA-3631 (0) were obtained from the American Type Culture Collection (ATCC; Manassas, VA, USA). Aspergillus nidulans ATCC 38163 (P) was obtained from University of Kentucky. Clinically derived Aspergillus fumigatus NRRL 163 (Q), A. fumigatus NRRL 5109 (R), and A. fumigatus NRRL 6113 (S) were obtained from Northern Regional Research Laboratory (NRRL). Candida auris 384 (K), C. auris 390 (L), and fungal strains 381-400 (including 10 C. auris (AR Bank #381-390), 3 Candida duobushaemulonii (AR Bank #391, AR Bank #392, and AR Bank #394), 2 Candida haemulonii (AR Bank #393 and AR Bank #395), 1 Kodameae ohmeri (AR Bank #396), 1 C. krusei (AR Bank #397), 1 Candida lusitaniae (AR Bank #398), and 2 Saccharomyces cerevisiae strains (AR Bank #399 and AR Bank #400)) were part of a larger fungal library from the AR Bank maintained by the Centers for Disease Control and Prevention (CDC; Atlanta, GA, USA). Filamentous fungi and yeasts were cultivated at 35° C. in RPMI 1640 medium (with L-glutamine, without sodium bicarbonate, Sigma-Aldrich, St. Louis, MO) buffered to a pH of 7.0 with 0.165 M morpholinepropanesulfonic acid (MOPS) buffer (Sigma-Aldrich). For cytotoxicity assays, HepG2 and the mouse macrophage cell line J774A.1 were obtained from University of Kentucky. The human embryonic kidney cell line, HEK-293, was bought from the ATCC. Mammalian cells were grown in Dulbecco's Modified Eagle's Medium (DMEM) (from VWR) with 10% fetal bovine serum (FBS) (from VWR) and 1% Pen/Strep (from ATCC). Cell lines were cultured at 37° C. with 5% CO2 and passaged by trypsinization with 0.05% trypsin: 0.53 mM EDTA (from Sigma-Aldrich).
(§2) From the actively growing yeast culture, 100 µL were then transferred to 900 μL of RPMI 1640 medium and re-adjusted to achieve OD600 of 0.12 (˜1×10^6 CFU/mL). The cell suspension was further diluted to achieve 1:100 in RPMI 1640 medium.

C. auris AR Bank #389 = experiment: MIC determination by in vitro antifungal assay; settings: C. auris AR Bank # 389 (Table 2B)
Protocol: as §1, §2

C. auris AR Bank #385 = experiment: MIC determination by in vitro antifungal assay; settings: C. auris AR Bank # 385 (Table 2B)
Protocol: as §1, §2

C. auris AR Bank #382 = experiment: MIC determination by in vitro antifungal assay; settings: C. auris AR Bank # 382 (Table 2B)
Protocol: as §1, §2

C. auris AR Bank #383 = experiment: MIC determination by in vitro antifungal assay; settings: C. auris AR Bank # 383 (Table 2B)
Protocol: as §1, §2

C. auris AR Bank #387 = experiment: MIC determination by in vitro antifungal assay; settings: C. auris AR Bank # 387 (Table 2B)
Protocol: as §1, §2

C. auris AR Bank #381 = experiment: MIC determination by in vitro antifungal assay; settings: C. auris AR Bank # 381 (Table 2B)
Protocol: as §1, §2

C. auris AR Bank #388 = experiment: MIC determination by in vitro antifungal assay; settings: C. auris AR Bank # 388 (Table 2B)
Protocol: as §1, §2

C. auris AR Bank #386 = experiment: MIC determination by in vitro antifungal assay; settings: C. auris AR Bank # 386 (Table 2B)
Protocol: as §1, §2

[2] = Candidozyma auris, read-out: MIC

| SMILES | MIC [1] [µg/mL] | MIC (C. auris AR Bank #389; [2]) [µg/mL] | MIC (C. auris AR Bank #385; [2]) [µg/mL] | MIC (C. auris AR Bank #382; [2]) [µg/mL] | MIC (C. auris AR Bank #383; [2]) [µg/mL] | MIC (C. auris AR Bank #387; [2]) [µg/mL] | MIC (C. auris AR Bank #381; [2]) [µg/mL] | MIC (C. auris AR Bank #388; [2]) [µg/mL] | MIC (C. auris AR Bank #386; [2]) [µg/mL] | MIC (C. auris AR Bank #389) [μg/mL^−1] | MIC (C. auris AR Bank #385) [μg/mL^−1] | MIC (C. auris AR Bank #382) [μg/mL^−1] | MIC (C. auris AR Bank #383) [μg/mL^−1] | MIC (C. auris AR Bank #387) [μg/mL^−1] | MIC (C. auris AR Bank #381) [μg/mL^−1] | MIC (C. auris AR Bank #388) [μg/mL^−1] | MIC (C. auris AR Bank #386) [μg/mL^−1] |
| --- | --- | --- | --- | --- | --- | --- | --- | --- | --- | --- | --- | --- | --- | --- | --- | --- | --- |
| O=C(NNc1ccc(F)cc1F)c1ncc(F)cc1F [Compound 7g] | 0.12 to 7.8 (≈ 0.421 to 27.3 µM) | 3.9 (≈ 13.7 µM) | 0.98 (≈ 3.44 µM) | 1.95 (≈ 6.84 µM) | 3.9 (≈ 13.7 µM) | 1.95 (≈ 6.84 µM) | 3.9 (≈ 13.7 µM) | 3.9 (≈ 13.7 µM) | 1.95 (≈ 6.84 µM) | – | – | – | – | – | – | – | – |
| O=C(NNc1ccc(Cl)cc1)c1cccc(F)n1 [Compound 5e] | – | – | – | – | – | – | – | – | – | 7.8 | 3.9 | 7.8 | 3.9 | 7.8 | 7.8 | 7.8 | 7.8 |
| O=C(NNc1ccc(Cl)cc1)c1ncc(F)cc1F [Compound 7e] | – | – | – | – | – | – | – | – | – | 7.8 | 7.8 | 15.6 | 3.9 | 15.6 | 7.8 | 7.8 | 15.6 |
| O=C(NNc1ccc(Cl)cc1)c1ccc(F)cn1 [Compound 3e] | – | – | – | – | – | – | – | – | – | 7.8 | 1.95 | 7.8 | 3.9 | 7.8 | 7.8 | 7.8 | 7.8 |
| O=C(NNc1ccc(F)cc1F)c1cccc(F)n1 [Compound 5g] | 0.12 to 7.8 (≈ 0.449 to 29.2 µM) | 3.9 (≈ 14.6 µM) | 3.9 (≈ 14.6 µM) | 0.98 (≈ 3.67 µM) | 1.95 (≈ 7.3 µM) | 1.95 (≈ 7.3 µM) | 3.9 (≈ 14.6 µM) | 3.9 (≈ 14.6 µM) | 1.95 (≈ 7.3 µM) | – | – | – | – | – | – | – | – |
| O=C(NNc1ccc(F)cc1)c1nc(F)ccc1F [Compound 8d] | 0.06 to 1.95 (≈ 0.225 to 7.3 µM) | 0.98 (≈ 3.67 µM) | 0.24 (≈ 0.898 µM) | 0.98 (≈ 3.67 µM) | 0.98 (≈ 3.67 µM) | 0.49 (≈ 1.83 µM) | 0.98 (≈ 3.67 µM) | 0.49 (≈ 1.83 µM) | 0.98 (≈ 3.67 µM) | – | – | – | – | – | – | – | – |
| O=C(NNc1cccc(Cl)c1)c1ccc(F)cc1F [Compound 1b] | – | 3.9 (≈ 13.8 µM) | 3.9 (≈ 13.8 µM) | 3.9 (≈ 13.8 µM) | 15.6 (≈ 55.2 µM) | 7.8 (≈ 27.6 µM) | 3.9 (≈ 13.8 µM) | 3.9 (≈ 13.8 µM) | 7.8 (≈ 27.6 µM) | – | – | – | – | – | – | – | – |
| O=C(NNc1ccc(Cl)cc1)c1nc(F)ccc1F [Compound 8e] | – | – | – | – | – | – | – | – | – | 7.8 | 3.9 | 7.8 | 7.8 | 7.8 | 7.8 | 15.6 | 15.6 |
| O=C(NNc1ccc(F)cc1)c1cccc(Br)n1 [Compound 6d] | 0.12 to 7.8 (≈ 0.387 to 25.2 µM) | 1.95 (≈ 6.29 µM) | 0.98 (≈ 3.16 µM) | 0.98 (≈ 3.16 µM) | 1.95 (≈ 6.29 µM) | 0.98 (≈ 3.16 µM) | 1.95 (≈ 6.29 µM) | 0.98 (≈ 3.16 µM) | 1.95 (≈ 6.29 µM) | – | – | – | – | – | – | – | – |
